One assay deals with JeKo-1 cells. Briefly: Antiproliferative effect, MTS cell viability assay, JeKo-1 cells. In kind it is cell-based. To be noted: Homo sapiens; JeKo-1 mantle cell lymphoma cells; read-out: IC50 (anti-proliferation) JeKO-1 cells. In short, it runs like this:
(§1)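 Absorbance at 490 nm of formazan, formed by metabolically active cells from MTS tetrazolium, served as the viability measure after a 72 h treatment across a 0.001–10 μM concentration series plus untreated control.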

A further assay deals with BTK (Homo sapiens, UniProt Q06187). Briefly: Degradation of BTK protein in Namalwa cells (Western blot; DC50, Dmax). The settings on record: for DC50: cell line not given.
For a further assay, the system named is Mino cells. Briefly: Antiproliferative effect, MTS cell viability assay, Mino cells. In kind it is cell-based. The settings on record: Homo sapiens, MINO, Mino mantle cell lymphoma cells; read-out: IC50 (anti-proliferation) Mino cells. In short, it runs like this:
as §1

The mark [1] stands for this setting: read-out: DC50 (BTK degradation), concentration giving 50% reduction of BTK expression level.
The mark [2] stands for this setting: read-out: Dmax (BTK degradation).

Like-named read-outs stand apart in the source and are kept apart here.

BTK, sequence (Q06187 whole entry): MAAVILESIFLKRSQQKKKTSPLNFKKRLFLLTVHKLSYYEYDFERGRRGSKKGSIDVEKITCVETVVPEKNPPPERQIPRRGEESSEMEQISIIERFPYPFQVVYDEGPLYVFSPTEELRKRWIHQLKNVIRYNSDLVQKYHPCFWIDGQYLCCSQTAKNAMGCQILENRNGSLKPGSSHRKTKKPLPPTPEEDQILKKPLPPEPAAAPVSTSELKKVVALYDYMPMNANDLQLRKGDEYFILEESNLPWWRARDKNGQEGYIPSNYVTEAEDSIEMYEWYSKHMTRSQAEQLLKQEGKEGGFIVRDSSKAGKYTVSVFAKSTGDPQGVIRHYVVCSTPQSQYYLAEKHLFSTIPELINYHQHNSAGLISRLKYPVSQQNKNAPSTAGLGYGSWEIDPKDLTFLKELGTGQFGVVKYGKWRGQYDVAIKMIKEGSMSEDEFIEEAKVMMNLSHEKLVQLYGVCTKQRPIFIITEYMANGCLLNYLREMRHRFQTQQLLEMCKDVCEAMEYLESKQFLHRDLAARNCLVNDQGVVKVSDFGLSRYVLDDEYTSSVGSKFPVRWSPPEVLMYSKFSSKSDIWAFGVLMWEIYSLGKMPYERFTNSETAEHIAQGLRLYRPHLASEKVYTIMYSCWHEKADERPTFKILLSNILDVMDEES

For `Nc1ncnc2c1c(-c1ccc(Oc3ccccc3)cc1)nn2C1CCN(C2CCN(C(=O)N3CCC(CC4CCN(c5ccc6c(c5)C(=O)N(C5CCC(=O)NC5=O)C6=O)CC4)CC3)CC2)CC1` (stereo not drawn) [Compound 237, 5-(4-((1-(4-(4-amino-3-(4-phenoxyphenyl)-1H-pyrazolo[3,4-d]pyrimidin-1-yl)-[1,4′-bipiperidine]-1′-carbonyl)piperidin-4-yl)methyl)piperidin-1-yl)-2-(2,6-dioxopiperidin-3-yl)isoindoline-1,3-dione], the IC50 is 1000 to 10000 nM with JeKo-1 cells and less than 1000 nM with Mino cells. For the same compound, the Dmax on BTK is more than 90%. This compound also registered a 50% degradation concentration (DC50) on BTK (BTK degradation) of 10 to 50 nM.
Turning to `NC(=O)c1c(-c2ccc(Oc3ccccc3)cc2)nn2c1NCC[C@H]2C1CCN(C2CCN(C(=O)N3CCC(CN4CCC(c5ccc6c(c5)C(=O)N(C5CCC(=O)NC5=O)C6=O)CC4)CC3)CC2)CC1` (stereo partly drawn) [Compound 395, (7S)-7-(1′-(4-((4-(2-(2,6-dioxopiperidin-3-yl)-1,3-dioxoisoindolin-5-yl)piperidin-1-yl)methyl)piperidine-1-carbonyl)-[1,4′-bipiperidin]-4-yl)-2-(4-phenoxyphenyl)-4,5,6,7-tetrahydropyrazolo[1,5-a]pyrimidine-3-carboxamide], the IC50 in the assay on JeKo-1 cells and in the assay with Mino cells was 1000 to 10000 nM in each case. Besides, the DC50 on BTK (setting [1]) fell in the range of 10 to 50 nM. The maximal degradation (Dmax) on BTK (setting [2]) was more than 75%.
In the case of `NC(=O)c1c(-c2ccc(Oc3ccccc3)cc2)nn2c1NCCC2C1CCN(CC2CCN(C(=O)N3CCC(C4CCN(c5ccc6c(c5)C(=O)N(C5CCC(=O)NC5=O)C6=O)CC4)CC3)CC2)CC1` (stereo not drawn) [Compound 365, 7-(1-((1-(1′-(2-(2,6-dioxopiperidin-3-yl)-1,3-dioxoisoindolin-5-yl)-[4,4′-bipiperidine]-1-carbonyl)piperidin-4-yl)methyl)piperidin-4-yl)-2-(4-phenoxyphenyl)-4,5,6,7-tetrahydropyrazolo[1,5-a]pyrimidine-3-carboxamide], the IC50 with JeKo-1 cells and with Mino cells was less than 1000 nM in each case. The Dmax at BTK was more than 90%. The same compound had a half-maximal degradation concentration (DC50) on BTK (BTK degradation) of 10 to 50 nM.
On to `Nc1ncnc2c1c(-c1ccc(Oc3ccccc3)cc1)nn2C1CCN(C2CCN(C(=O)N3CCN(CCCN4CCN(c5ccc6c(c5)C(=O)N(C5CCC(=O)NC5=O)C6=O)CC4)CC3)CC2)CC1` (stereo not drawn) [Compound 257, 5-(4-(3-(4-(4-(4-amino-3-(4-phenoxyphenyl)-1H-pyrazolo[3,4-d]pyrimidin-1-yl)-[1,4′-bipiperidine]-1′-carbonyl)piperazin-1-yl)propyl)piperazin-1-yl)-2-(2,6-dioxopiperidin-3-yl)isoindoline-1,3-dione], for which the IC50 in the assay on JeKo-1 cells and with Mino cells was more than 10000 nM in each case. The compound also registered a Dmax on BTK of more than 75%. This compound also came in with a 50% degradation concentration (DC50) at BTK (BTK degradation) of more than 50 nM.
On to `Nc1ncnc2c1c(-c1ccc(Oc3ccccc3)cc1)nn2C1CCN(C2CCN(C(=O)N3CCC(N4CCN(c5ccc6c(c5)C(=O)N(C5CCC(=O)NC5=O)C6=O)CC4)CC3)CC2)CC1` (stereo not drawn) [Compound 231, 5-(4-(1-(4-(4-amino-3-(4-phenoxyphenyl)-1H-pyrazolo[3,4-d]pyrimidin-1-yl)-[1,4′-bipiperidine]-1′-carbonyl)piperidin-4-yl)piperazin-1-yl)-2-(2,6-dioxopiperidin-3-yl)isoindoline-1,3-dione], for which the IC50 with JeKo-1 cells and in the assay on Mino cells was 1000 to 10000 nM in each case. The compound also displayed a Dmax on BTK of more than 90%. Moreover, the 50% degradation concentration (DC50) at BTK (BTK degradation) was 10 to 50 nM.
Consider `NC(=O)c1c(-c2ccc(Oc3ccccc3)cc2)nn2c1NCC[C@H]2C1CCN(CC2CCN(C(=O)N3CCN(C4CCN(c5ccc6c(c5)C(=O)N(C5CCC(=O)NC5=O)C6=O)CC4)CC3)CC2)CC1` (stereo partly drawn) [Compound 401], for which the IC50 with JeKo-1 cells and in the assay with Mino cells was 1000 to 10000 nM in each case. Moreover, at BTK (setting [1]), the DC50 was 10 to 50 nM. The Dmax on BTK (setting [2]) was more than 90%.

Source of the values: patent US12139492B2 (Endotarget Inc., priority 2021, dated 2024).
